Data from the NIST ThermoML archive (doi:10.1016/j.jct.2005.11.009).

Conditions: Liquid, Transpiration method

CCCCCc1ccccc1 [pentylbenzene]
Conditions | vapor or sublimation pressure [kPa]
284.5 K | 0.0162
287.5 K | 0.0218
290.4 K | 0.0272
293.3 K | 0.0333
293.4 K | 0.0328
296.3 K | 0.0427
298.3 K | 0.0493
303.2 K | 0.0706
306.3 K | 0.0902
308.2 K | 0.0998
311.2 K | 0.1227
314.2 K | 0.1487
317.3 K | 0.1765
320.3 K | 0.2193
323.2 K | 0.2711

CCCCCCCc1ccccc1 [heptylbenzene]
Conditions | vapor or sublimation pressure [kPa]
292.5 K | 0.00286
294.5 K | 0.00347
297.5 K | 0.00455
300.4 K | 0.00585
303.4 K | 0.00761
306.4 K | 0.00955
309.4 K | 0.01227
312.4 K | 0.01486
315.4 K | 0.01959
318.2 K | 0.02441
321.3 K | 0.03085
323.4 K | 0.03499
326.4 K | 0.04342
328.4 K | 0.04901
331.3 K | 0.06114
333.5 K | 0.06975
336.4 K | 0.0845
338.5 K | 0.09752
341.3 K | 0.1139
343.5 K | 0.1322
346.3 K | 0.1552
348.5 K | 0.1818
351.5 K | 0.2197
353.5 K | 0.2474

CCCCCCCCCCc1ccccc1 [1-phenyldecane]
Conditions | vapor or sublimation pressure [kPa]
318.2 K | 0.00122
323.2 K | 0.00192
328.3 K | 0.00293
333.5 K | 0.0045
338.6 K | 0.00655
343.7 K | 0.00966
348.7 K | 0.0144
353.3 K | 0.0203
358.4 K | 0.0288
363.4 K | 0.0406

CCCCCCCCCCCc1ccccc1 [undecylbenzene]
Conditions | vapor or sublimation pressure [kPa]
313.2 K | 0.00027
319.3 K | 0.0005
323.3 K | 0.00072
327.3 K | 0.00104
331.3 K | 0.00146
333.4 K | 0.00176
338.4 K | 0.00262
343.5 K | 0.00413
348.7 K | 0.00598
353.6 K | 0.00906
358.7 K | 0.01272
363.8 K | 0.01807
